This passage reports IC50 results from US6838465B2, “N-acyltetrahydroisoquinoline derivatives” (Banyu Pharmaceutical Co., Ltd., priority 2000, dated 2005).

The target in one test is T1, human OX1 receptor (Homo sapiens, UniProt O43613).
T1 construct: expressed in transfected cells
T1 sequence (O43613 1-425): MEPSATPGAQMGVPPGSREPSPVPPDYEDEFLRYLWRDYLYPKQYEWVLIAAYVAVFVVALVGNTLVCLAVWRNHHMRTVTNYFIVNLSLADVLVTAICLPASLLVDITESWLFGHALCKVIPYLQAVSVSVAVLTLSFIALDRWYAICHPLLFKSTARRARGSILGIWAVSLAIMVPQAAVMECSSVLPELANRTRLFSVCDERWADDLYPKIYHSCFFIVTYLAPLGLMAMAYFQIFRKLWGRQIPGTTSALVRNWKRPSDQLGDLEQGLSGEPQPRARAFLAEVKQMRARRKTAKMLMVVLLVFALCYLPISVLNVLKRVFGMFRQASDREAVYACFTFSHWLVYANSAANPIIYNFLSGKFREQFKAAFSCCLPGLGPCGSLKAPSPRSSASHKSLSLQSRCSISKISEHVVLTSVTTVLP
Briefly: Inhibition of orexin A-induced increase in intracellular calcium concentration (FLIPR), OX1 receptor expressing CHO-K1 cells. The test is classed as cell-based. The conditions noted are these: CHO-K1 cells stably expressing human OX1 receptor; 0.3 nM orexin A; compound added 5 minutes before; fluo-3 AM; read-out: 50% Inhibition concentration, OX1 receptor. From the text: (§1) A cDNA sequence encoding human orexin OX1 receptor or OX2 receptor (see GenBank, accession number AF 041243 and AF 041245) was cloned into the EcoRV-EcoRI site of a mamal expressed plasmid vector pIRESIneo (made by Clontech Laboratories, Inc.) and the PmlI-XbaI site of a mamal expressed plasmid vector pEF/myc/cyto (made by Invitrogen Corp.). The resulting vectors were respectively transfected into Chinese hamster's ovarian cells CHO-K1 (Americam Type Culture Collection, ATCC number CCL-61). Then, cells having resistance to 2 mg/ml of Geneticin (G418, made by Life Technologies, Inc.) were selected to obtain a cell line stably expressing a human OX1 receptor and a cell line stably expressing a human OX2 receptor. The OX1 receptor or OX2 receptor stably expressing cells were made to take up fluo-3, AM (made by Molecualr Probes Inc.), a fluorescent indicator of calcium concentration, and then 0.3 nM of orexin A was added to a suspension of the cells in an assay buffer (Hank's […] salt solution adjusted to pH 7.4 and containing 20 mM HEPES, 0.5% bovine serum albumin and 2.5 mM probenecid), and the change of the intracellular calcium concentration was measured with time lapse using FLIPR (Fluorometric Imaging Plate Reader, made by Molecular Devices Corp.). The effect of a test compound influencing the increase in the intracellular calcium concentration was assayed by adding the test compound in various concentrations to the assay solutions, 5 minutes before the addition of orexin A, and the 50% inhibition concentration (IC50 value) of the test compound against the increase in intracellular calcium concentration caused by the addition of 0.3 nM orexin A was determined (Table 1).
(Calcium assays in cells follow changes in intracellular calcium, usually with a dye or a luminescent sensor.)

The next test deals with T2, human OX2 receptor (Homo sapiens, UniProt O43614).
T2 construct: expressed in transfected cells
T2 sequence (O43614 1-444): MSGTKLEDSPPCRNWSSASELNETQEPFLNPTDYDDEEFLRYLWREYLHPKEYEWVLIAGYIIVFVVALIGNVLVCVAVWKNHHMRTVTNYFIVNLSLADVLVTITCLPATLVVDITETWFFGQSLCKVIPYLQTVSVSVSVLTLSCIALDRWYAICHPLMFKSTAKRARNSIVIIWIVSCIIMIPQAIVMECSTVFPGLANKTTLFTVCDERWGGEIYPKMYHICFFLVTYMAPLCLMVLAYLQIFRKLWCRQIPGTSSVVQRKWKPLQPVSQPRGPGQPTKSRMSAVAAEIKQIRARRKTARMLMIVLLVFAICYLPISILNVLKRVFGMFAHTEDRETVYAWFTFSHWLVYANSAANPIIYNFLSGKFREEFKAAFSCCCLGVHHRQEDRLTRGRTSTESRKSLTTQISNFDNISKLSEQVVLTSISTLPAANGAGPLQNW
Briefly: Inhibition of orexin A-induced increase in intracellular calcium concentration (FLIPR), OX2 receptor expressing CHO-K1 cells. The class given is cell-based. As to conditions: CHO-K1 cells stably expressing human OX2 receptor; 0.3 nM orexin A; compound added 5 minutes before; fluo-3 AM; read-out: 50% Inhibition concentration, OX2 receptor.
Excerpt: as §1

Structures are written as SMILES.

In the case of `COc1cc2c(cc1OC)CN(C(=O)C(Cc1ccccc1)NC(=O)c1cc(Cl)cc(Cl)c1)CC2` (centres unmarked) [Example 4, N-[2-(6,7-dimethoxy-1,2,3,4-tetrahydroisoquinolin-2-yl)-2-oxo-1-benzylethyl](3,5-dichlorophenyl)carboxyamide], the IC50 at human OX1 receptor amounted to 5.3 µM; on human OX2 receptor, 0.031 µM.
Taken in the same sequence, the figures for `COc1cc2c(cc1OC)CN(C(=O)[C@@H](NCc1ccncc1)C(C)(C)C)CC2` [Example 6, (2S)-2-(N-4-pyridylmethyl)amino-1-(6,7-dimethoxy-1,2,3,4-tetrahydroisoquinolin-2yl)-3,3-dimethylbutan-1-one] were 24 µM and 0.11 µM.
On the same counts, the results for `COc1cc2c(cc1OC)CN(C(=O)[C@@H](NCc1nccs1)C(C)(C)C)CC2` [Example 8, (2S)-1-(6,7-dimethoxy-1,2,3,4-tetrahydroisoquinolin-2-yl)-3,3-dimethyl-2-((2-thiazolylmethyl)amino)butan-1-one] are 17 µM and 0.049 µM.
As for `COc1cc2c(cc1OC)CN(C(=O)[C@@H](NCc1cccc(Br)c1)C(C)(C)C)CC2` [Example 23, (2S)-2-(3-bromobenzylamino)-1-(6,7-dimethoxy-1,2,3,4-tetrahydroisoquinolin-2-yl)-3,3-dimethylbutan-1-one], the IC50 at human OX1 receptor turned out to be 4.4 µM; on human OX2 receptor, 0.14 µM.
